Data set [1] can be described thus: Solubility in 10% beta-hydroxypropyl cyclodextrin (BHPC) in water. It is filed as physicochemical. The following applies: Na salt; at 1 mg/mL. On the procedure: In one aspect, aqueous ophthalmic solutions that include a FLAP inhibitor compounds were prepared by dissolving a FLAP inhibitor compound in 10% beta-hydroxypropyl cyclodextrin (BHPC) in water. Using this formulation, the following compounds were soluble at 1 mg/mL: Compound A (Na salt), Compound B (Na salt), Compound C (Na salt), Compound I (Na salt), Compound J (Na salt), Compound G (Na salt).

The subject of data set [2] is RSV. Kind of data set: Mouse model of RSV-infected eye: RSV viral load, RNA and protein in eye and lung. It counts as in vivo, BALB/c mice. Conditions: ocular application to RSV-infected mice. On the procedure: (§1) A mouse model of respiratory syncytial virus (RSV) eye infection is used to test the effects of ocular application of a FLAP inhibitor compound on RSV-induced ocular immunopathology (Bitko V, et al., J. Virol. 2007; 81(2):783-90; Bitko V, et al., Nat. Med. 2005; 11(1):50-5). Each mouse eye is topically treated with 60 ng of FLAP inhibitor compound or vehicle (sterile saline) in a volume of 2 μl. The FLAP inhibitor compound is instilled 40 min after virus inoculum and then once daily over the entire duration of the protocol (14 days).
(§2) Instillation of virus and inhibitor in the eye. Female BALB/c mice, 6 to 8 weeks old, were purchased from Charles River Laboratories. RSV (Long strain, serotype A) was grown on HEp-2 cells and purified on sucrose layers to a concentration of 10^11 PFU (Bitko et al., Nat. Med. 11:50-55, 2005). Dilutions were done in phosphate-buffered saline (PBS) immediately before use to a final concentration of 10^4 PFU/2 μL as needed. A similarly diluted sucrose solution was used in sham-infected control mice. Mice were anesthetized by intraperitoneal injection of pentobarbital (50 mg/kg), and virus in 2 μL PBS was dropped into the corneal surface and massaged in with closed eyelids. The day of the inoculation was considered day 0. The FLAP inhibitor Compound C was diluted in PBS to 60 ng/2 μL just prior to application of 2 μL 40 minutes after the RSV inoculation on day 0 and then each day.
RSV RNA and protein: RSV is assayed in the ocular tissue on various days using both Western blot and viable virus assay (plaque forming unit; pfu) as described before. […] is quantified by RT-PCR. RSV RNA and protein were measured in the eye and lung (Urnowey et al., BMC Microbiol. 6:26, 2006).
Compound C reduced RSV in the lung.
Infection of an eye eventually transmits into the lung, causing a standard respiratory infection. […] Thus, it is of interest to monitor the lung infection to determine if the ocular application of the FLAP inhibitor compound has any effect on virus replication and quantity of virus in the lung. […]

In data set [3] the test system is IL-4. Put plainly: Mouse model of RSV-infected eye: Interleukin-4 (IL-4) measurements in eye homogenates. It is filed as in vivo, BALB/c mice. Conditions: topical treatment of RSV-infected mouse eyes, 60 ng/2 μL daily. On the procedure: as §1
as §2, with “The FLAP inhibitor Compound C was diluted in PBS to 60 ng/2 μL just prior to application of 2 μL 40 minutes after the RSV inoculation on day 0 and then each day.” left out

Data set [4] deals with CysLTs. Kind of data set: Mouse model of RSV-infected eye: CysLT measurements in eye homogenates (EIA). It is filed as in vivo, BALB/c mice. Conditions: topical treatment of RSV-infected mouse eyes, 60 ng/2 μL daily. On the procedure: as §1
as §2, with “The FLAP inhibitor Compound C was diluted in PBS to 60 ng/2 μL just prior to application of 2 μL 40 minutes after the RSV inoculation on day 0 and then each day.” left out

The subject of data set [5] is RSV (Long strain, serotype A). Put plainly: Mouse model of RSV-infected eye: ocular pathology. It counts as in vivo, BALB/c mice. On the procedure: as §1
Instillation of virus and inhibitor in the eye. Female BALB/c mice, 6 to 8 weeks old, were purchased from Charles River Laboratories. RSV (Long strain, serotype A) was grown on HEp-2 cells and purified on sucrose layers to a concentration of 10^11 PFU (Bitko et al., Nat. Med. 11:50-55, 2005). […]
Ocular pathology. Ocular disease was evaluated with a slit lamp biomicroscope as described previously (Bitko V, et al., J. Virol. 2007; 81(2):783-90) 15; Girgis et al., Invest. […] Pathology was scored on a scale of 0 to 5 as follows: 0=clear eye; 1=slight redness in the corners; 2=moderate redness and injection; 3=conjunctival and corneal injection with ciliary flush; 4=extensive injection, generally associated with some mucus; 5=most extensive injection, associated with mucus. Eyes were examined in a coded fashion with the reader unaware of the treatment given. […]

Details of data set [6]: species or system BALB/c mice. Conditions: mouse, in vivo, 10 mg/kg.

Here are results for eight molecules from patent publication US20120027842A1, “TOPICAL FORMULATIONS OF FLAP INHIBITORS FOR ADMINISTRATION TO AN EYE” (Amira Pharmaceuticals, Inc., priority 2008, published 2012).

A value given as a limit tells only on which side of the number the result lay.

As for `COc1cnc(-c2ccc(Cn3c(CC(C)(C)C(=O)O)c(SC(C)(C)C)c4cc(OCc5ccc(C)cn5)ccc43)cc2)nc1` [Compound A, 3-[3-tert-Butylsulfanyl-1-[4-(5-methoxy-pyrimidin-2-yl)-benzyl]-5-(5-methyl-pyridin-2-ylmethoxy)-1H-indol-2-yl]-2,2-dimethyl-propionic acid], the “solubility in 10% beta-hydroxypropyl cyclodextrin (BHPC) in water” value in data set [1] is “soluble”. Same read-out and setting: for `COc1cnc(-c2ccc(Cn3c(CC(C)(C)C(=O)O)c(SC(C)(C)C)c4cc(OCc5cnc(C)cn5)ccc43)cc2)nc1` [Compound B, 3-[3-tert-Butylsulfanyl-1-[4-(5-methoxy-pyrimidin-2-yl)-benzyl]-5-(5-methyl-pyrazin-2-ylmethoxy)-1H-indol-2-yl]-2,2-dimethyl-propionic acid] the value was “soluble”. Turning to `COc1cnc(-c2ccc(Cn3c(CC(C)(C)C(=O)O)c(SC(C)(C)C)c4cc(OC[C@@H]5Cc6ccccc6N5C(C)=O)ccc43)cc2)nc1` [Compound C, 3-{5-((S)-1-Acetyl-2,3-dihydro-1H-indol-2-ylmethoxy)-3-tert-butylsulfanyl-1-[4-(5-methoxy-pyrimidin-2-yl)-benzyl]-1H-indol-2-yl}-2,2-dimethyl-propionic acid], in data set [2], the “RSV in the lung” value is recorded as “reduced”, the “RSV mRNA or protein in the eye or the lung” value was “did not increase” and the “viral load in the eye or the lung” value was “did not increase”. For the same molecule, the “solubility in 10% beta-hydroxypropyl cyclodextrin (BHPC) in water” value in data set [1] is reported as “soluble”. For the same molecule, the “levels of IL-4 in eye homogenates” value in data set [3] is “reduced”. Further, the “levels of CysLTs in eye homogenates” value in data set [4] is listed as “reduced”. In addition, the “gummy residue and mucin build up in infected eyes” value in data set [5] (ocular application 60 ng/2 μL per eye daily, day 8) was “clear of gummy residue and mucin build up”. Besides, in data set [5] (ocular application 60 ng/2 μL per eye, 40 min after RSV then daily, days 2-14 after RSV challenge), the “RSV eye pathology score (scale of 0 to 5)” value is recorded as “reduces the pathology score across all observation days”.

Turning to `CC(C)(C)Sc1c(CC(C)(C)C(=O)O)n(Cc2ccc(-c3ccc(F)cn3)cc2)c2ccc(OCc3ccc4ccccc4n3)cc12` [Compound F, 3-[3-tert-Butylsulfanyl-1-[4-(5-fluoro-pyridin-2-yl)-benzyl]-5-(quinolin-2-ylmethoxy)-1H-indol-2-yl]-2,2-dimethyl-propionic acid], the “solubility in 10% beta-hydroxypropyl cyclodextrin (BHPC) in water” value in data set [1] was “formed a cloudy solution”. On the same count and under the same terms, for `CCC(CC)(Cc1c(SC(C)(C)C)c2cc(OCc3ccc(C)cn3)ccc2n1Cc1ccc(-c2ncc(OC)cn2)cc1)C(=O)O` [Compound G, 2-[3-tert-Butylsulfanyl-1-[4-(5-methoxy-pyrimidin-2-yl)-benzyl]-5-(5-methyl-pyridin-2-ylmethoxy)-1H-indol-2-ylmethyl]-2-ethyl-butyric acid] the value was “soluble”. Still for that read-out and setting: for `CC(=O)N1CCC[C@H]1COc1ccc2c(c1)c(SC(C)(C)C)c(CC(C)(C)C(=O)O)n2Cc1ccc(Cl)cc1` [Compound I, 3-[5-((S)-1-Acetyl-pyrrolidin-2-ylmethoxy)-3-tert-butylsulfanyl-1-(4-chloro-benzyl)-1H-indol-2-yl]-2,2-dimethyl-propionic acid] the value was “soluble”; for `CC(C)(C)Sc1c(CC(C)(C)C(=O)O)n(Cc2ccc(-c3ccc(F)cn3)cc2)c2ccc(OCc3ccccn3)cc12` [Compound J, 3-[3-tert-butylsulfanyl-1-[4-(5-fluoro-pyridin-2-yl)-benzyl]-5-(pyridin-2-ylmethoxy)-1H-indol-2-yl]-2,2-dimethyl-propionic acid], “soluble”. Consider `CCN(Cc1cc(C(F)(F)F)ccc1-c1cncc(CC(=O)O)c1)C(=O)OCc1ccccc1` [DP2 receptor antagonist], for which the “Plasma concentration @ trough” value in data set [6] is recorded as less than 10 nM.
